The text below walks through data of US9895302B2, “Finasteride polymeric nanoparticle, aqueous suspension containing the same, composition for the treatment of alopecia, process of preparation of said composition, and its use” (Biolab Sanus Farmaceutica Ltda., priority 2012, dated 2018).

Series [1] can be described thus: Solubility of finasteride in Unistab S-69 (dosing by HPLC). The format is physicochemical. To be noted: Unistab S-69 (commercial mixture of farnesol and linalool), oil or lipid. The procedure:
The second embodiment of the invention is to increase the encapsulation of finasteride by the addition of a new oil in the formulation's lipid core composition in which the solubility is greater than in caprylic and capric triglycerides. To this end, Unistab® S-69, a commercial mixture, was preferentially employed and consists of farnesol and linalool, in which the solubility of finasteride is about 90 mg/mL (dosing done by HPLC). Farnesol is a sesquiterpene alcohol and linalool is a terpenic alcohol, both found in various essential oils and insoluble in water but miscible with oils and other organic solvents such as acetone and ethanol. For being volatile, Unistab® S-69 was mixed with triglycerides in a ratio of 2.3: 1 (v/v) (Unistab® S-69: triglycerides). However, this proportion, considering the saturation of finasteride in Unistab® S-69, could be employed in the preparation of a formulation with a drug concentration of 2.0 mg/ml, due to the volatility of Unistab® S-69 and to the consequent loss of oil due to the draw caused by steam during the process of solvent evaporation under reduced pressure, a formulation was prepared with a finasteride concentration of 0.5 mg/ml, in order to ensure the nanometric features of the system. This formulation comprising a new lipid core represents the second embodiment of the invention.

The next series has as its system men aged 18 to 41 years. Conditions: 1 mg daily, at the end of five years; cited from earlier work.

Molecules are shown by their SMILES. Values after ≈ are worked out from the molar mass of the structure shown.

Turning to `CC(C)(C)NC(=O)[C@H]1CC[C@H]2[C@@H]3CC[C@H]4NC(=O)C=C[C@]4(C)[C@H]3CC[C@]12C` [finasteride], the solubility in series [1] was roughly 90 mg/mL (≈ 242 mM). Moreover, the “Patients who developed baldness” value in the series with men aged 18 to 41 years is recorded as 10%.

In general, solubility refers to how much of the substance goes into solution per volume.
